We go through 25 compounds from ChEMBL document CHEMBL3714712, “Thieno [2,3-c]pyrazoles for use as potassium channel inhibitors” (2013).

Molecules are shown by their SMILES. Some results are limits rather than exact numbers.

The target of the assay is T1, Kir3.1/Kir3.4 (Rattus norvegicus, UniProt P48548+P63251).
T1 sequence (P63251 whole entry): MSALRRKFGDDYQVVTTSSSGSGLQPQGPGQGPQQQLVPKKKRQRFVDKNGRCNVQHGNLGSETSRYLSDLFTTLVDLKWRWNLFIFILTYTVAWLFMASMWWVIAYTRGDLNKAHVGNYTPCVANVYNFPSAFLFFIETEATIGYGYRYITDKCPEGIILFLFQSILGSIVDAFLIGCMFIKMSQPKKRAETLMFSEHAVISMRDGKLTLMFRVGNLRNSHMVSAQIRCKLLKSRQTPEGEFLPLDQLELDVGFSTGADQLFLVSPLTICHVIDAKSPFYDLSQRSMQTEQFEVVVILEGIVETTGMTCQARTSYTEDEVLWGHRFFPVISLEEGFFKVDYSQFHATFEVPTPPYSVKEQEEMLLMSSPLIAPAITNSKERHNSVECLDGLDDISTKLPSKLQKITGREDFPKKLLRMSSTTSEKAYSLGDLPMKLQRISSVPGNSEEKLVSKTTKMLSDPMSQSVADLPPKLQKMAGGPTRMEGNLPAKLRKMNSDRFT
T1 sequence (P48548 whole entry): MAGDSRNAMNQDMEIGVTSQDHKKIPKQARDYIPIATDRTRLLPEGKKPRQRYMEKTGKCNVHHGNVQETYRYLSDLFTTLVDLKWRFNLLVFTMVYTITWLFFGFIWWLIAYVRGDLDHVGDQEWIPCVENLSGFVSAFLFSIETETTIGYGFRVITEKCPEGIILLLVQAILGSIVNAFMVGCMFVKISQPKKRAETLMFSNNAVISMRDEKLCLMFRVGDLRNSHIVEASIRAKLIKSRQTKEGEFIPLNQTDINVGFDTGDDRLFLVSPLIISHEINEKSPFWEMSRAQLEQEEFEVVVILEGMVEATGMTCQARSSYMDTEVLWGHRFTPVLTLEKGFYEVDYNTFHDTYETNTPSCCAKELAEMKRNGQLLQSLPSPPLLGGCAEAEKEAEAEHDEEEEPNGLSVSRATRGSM
The assay can be described thus: Inhibition of rat Kir3.1/Kir3.4 expressed in HEK293 cells assessed as reduction in depolarizing voltage step-induced recombinant G-protein activated inward rectifier current by whole cell patch clamp assay. The assay is classed as cell-based.
As to `CC(=O)n1nc(N2CCCC(COCCN3CCCC3)C2)c2c(-c3ccccc3)csc21` (stereo not given), the IC50 is under 500 nM.

Consider `CC(C)NC(=O)c1sc2[nH]nc(N3CCC(COCCN4CCCC4)CC3)c2c1-c1ccccc1`, for which the IC50 is under 500 nM.

Regarding `c1ccc(-c2csc3[nH]nc(N4C5CCC4CC(N4CCC4)C5)c23)cc1` (stereo not given), the IC50 stood at 500 nM.

Consider `c1ccc(-c2csc3[nH]nc(N4C5CCC4CC(NC4CCC4)C5)c23)cc1` (stereo not given), for which the IC50 is under 500 nM.

Take `CS(=O)(=O)n1nc(N2CC3CC2CC3OCCN2CCCC2)c2c(-c3ccc(F)cc3)csc21` (stereo not given): the IC50 was under 500 nM.

Take `CC(C)NC1CC2CCC(C1)N2c1n[nH]c2scc(-c3ccccc3)c12` (stereo not given): the IC50 stood at 500 nM.

Regarding `c1ccc(-c2csc3[nH]nc(N4C5CCC4CC(OCCN4CCCC4)C5)c23)cc1` (stereo not given), the IC50 is under 500 nM.

With `c1ccc(-c2csc3[nH]nc(N4CCCC(COCCN5CCCC5)C4)c23)cc1` (stereo not given), the IC50 is under 500 nM.

In the case of `CNC(=O)c1sc2[nH]nc(N3CCC(COCCN4CCCC4)CC3)c2c1-c1ccccc1`, the IC50 was under 500 nM.

For the compound `c1ccc(-c2csc3[nH]nc(N4C5CCC4CC(COCCN4CCCC4)C5)c23)cc1` (stereo not given), the IC50 was under 500 nM.

`c1ccc(-c2csc3[nH]nc(N4CCC(COCCN5CCCC5)CC4)c23)cc1`: the IC50 is under 500 nM.

Regarding `CN(C)C(=O)c1sc2c(c(N3CCC(COCCN4CCCC4)CC3)nn2C)c1-c1ccccc1`, the IC50 came to 500 nM.

For the compound `N#Cc1sc2[nH]nc(N3CCC(COCCN4CCCC4)CC3)c2c1-c1ccccc1`, the IC50 is under 500 nM.

On to `CC(=O)n1nc(N2CCC(COCCN3CCCC3)CC2)c2c(-c3ccccc3)csc21`, for which the IC50 is under 500 nM.

In the case of `c1ccc(-c2csc3[nH]nc(N4CCC(COCCN5CCCC5)C4)c23)cc1` (stereo not given), the IC50 was under 500 nM.

Take `CC(=O)n1nc(N2CC3CC2CC3OCCN2CCCC2)c2c(-c3ccc(F)cc3)csc21` (stereo not given): the half-inhibitory concentration (IC50) was under 500 nM.

With `CC(=O)n1nc(N2CCC(COCCN3CCCC3)C2)c2c(-c3ccccc3)csc21` (stereo not given), the IC50 was under 500 nM.

As to `Fc1ccc(-c2csc3[nH]nc(N4CC5CC4CC5OCCN4CCCC4)c23)cc1` (stereo not given), the IC50 is under 500 nM.

With `Cn1nc(N2CCC(COCCN3CCCC3)CC2)c2c(-c3ccccc3)csc21`, the half-inhibitory concentration (IC50) was under 500 nM.

Take `Brc1sc2[nH]nc(N3CC4CC3CC4OCCN3CCCC3)c2c1-c1ccccc1` (stereo not given): the IC50 was under 500 nM.

Turning to `c1ccc(-c2csc3[nH]nc(N4CC5CC4CC5OCCN4CCCC4)c23)cc1` (stereo not given), the 50% inhibitory concentration (IC50) is under 500 nM.

For the compound `CN(C)C(=O)c1sc2[nH]nc(N3CCC(COCCN4CCCC4)CC3)c2c1-c1ccccc1`, the concentration for half-maximal inhibition (IC50) was found to be 500 nM.

In the case of `CC(=O)n1nc(N2CC3CC2CC3OCCN2CCCC2)c2c(-c3ccccc3)csc21` (stereo not given), the IC50 was under 500 nM.

Consider `CC(=O)n1nc(N2C3CCC2CC(OCCN2CCCC2)C3)c2c(-c3ccccc3)csc21` (stereo not given), for which the half-inhibitory concentration (IC50) is under 500 nM.

Take `CS(=O)(=O)n1nc(N2CCC(COCCN3CCCC3)CC2)c2c(-c3ccccc3)csc21`: the IC50 was under 500 nM.
